Results on 3 compounds are retold here after publication PMC10910633 (Journal of the American Chemical Society, 2023).

One series relates to Jurkat E6-1 cells. Kind of series: Cytotoxicity towards Jurkat lymphocytes. Type of series: cell-based.
In a further series the target is native PKCβI (Mus musculus, UniProt P68404). Nature of the series: cell-based. The series is classed as binding.
In another series the target is native PKCγ (Mus musculus, UniProt P63318). Nature of the series: cell-based. The series is classed as binding.
Another series deals with native PKCδ (Mus musculus, UniProt P28867). Nature of the series: cell-based. The series is classed as binding.
The target of the next series is T1, native PKCε (Mus musculus, UniProt P16054).
T1 sequence (P16054 1-737): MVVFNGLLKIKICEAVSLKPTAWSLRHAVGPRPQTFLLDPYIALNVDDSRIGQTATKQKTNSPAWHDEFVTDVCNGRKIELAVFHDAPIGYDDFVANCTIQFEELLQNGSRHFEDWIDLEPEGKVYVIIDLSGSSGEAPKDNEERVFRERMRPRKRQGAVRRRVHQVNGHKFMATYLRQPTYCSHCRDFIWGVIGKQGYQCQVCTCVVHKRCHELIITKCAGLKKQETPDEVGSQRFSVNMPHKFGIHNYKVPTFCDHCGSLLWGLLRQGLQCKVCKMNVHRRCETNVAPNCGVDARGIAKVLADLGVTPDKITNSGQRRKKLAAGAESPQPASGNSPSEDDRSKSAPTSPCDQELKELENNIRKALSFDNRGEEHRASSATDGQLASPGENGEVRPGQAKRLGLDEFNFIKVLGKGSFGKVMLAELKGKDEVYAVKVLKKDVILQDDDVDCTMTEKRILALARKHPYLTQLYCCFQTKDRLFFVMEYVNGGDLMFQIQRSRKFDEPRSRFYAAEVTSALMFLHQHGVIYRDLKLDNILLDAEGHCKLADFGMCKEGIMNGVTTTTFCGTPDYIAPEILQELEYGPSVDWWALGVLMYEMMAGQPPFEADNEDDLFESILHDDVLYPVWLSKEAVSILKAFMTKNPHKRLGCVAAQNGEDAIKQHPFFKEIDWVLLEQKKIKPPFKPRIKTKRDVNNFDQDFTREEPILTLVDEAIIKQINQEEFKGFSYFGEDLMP
Nature of the series: cell-based. Type of series: binding.

Another series deals with T2, native PKCζ (Mus musculus, UniProt Q02956).
T2 sequence (Q02956 1-592): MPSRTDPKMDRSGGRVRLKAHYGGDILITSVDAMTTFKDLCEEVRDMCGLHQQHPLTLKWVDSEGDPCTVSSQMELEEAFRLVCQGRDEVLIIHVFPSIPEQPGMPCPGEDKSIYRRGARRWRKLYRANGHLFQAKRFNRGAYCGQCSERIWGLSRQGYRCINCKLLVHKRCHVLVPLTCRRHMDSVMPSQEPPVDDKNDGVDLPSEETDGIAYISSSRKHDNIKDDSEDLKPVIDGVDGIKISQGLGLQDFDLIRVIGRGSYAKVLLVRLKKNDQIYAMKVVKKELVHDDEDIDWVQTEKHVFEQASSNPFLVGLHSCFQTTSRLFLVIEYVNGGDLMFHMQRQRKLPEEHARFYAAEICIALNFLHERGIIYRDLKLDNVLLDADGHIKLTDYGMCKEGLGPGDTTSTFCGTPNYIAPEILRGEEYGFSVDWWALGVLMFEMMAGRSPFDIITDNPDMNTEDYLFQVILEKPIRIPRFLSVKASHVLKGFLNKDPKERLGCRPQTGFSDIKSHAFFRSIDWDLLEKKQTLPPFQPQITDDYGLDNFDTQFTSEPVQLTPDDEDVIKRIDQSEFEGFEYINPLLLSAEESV
Type of series: binding.

A further series concerns the target native PKCη (Mus musculus, UniProt P23298). Kind of series: cell-based. The series is classed as binding.
In another series the target is native PKCθ (Mus musculus, UniProt Q02111). Kind of series: cell-based. Type of series: binding.
The next series has as its system HEK293T cells. Kind of series: Cytotoxicity towards HEK293T cells. The series is classed as cell-based. Particulars: treatment for 48 h at concentrations of ≤ 10 μM.
Another series concerns the target PKCδ. As to conditions: read-out: Previously reported biochemical Ki values, PDBu; cited from earlier work.
The target in the next series is PKCγ. Particulars: read-out: Previously reported biochemical Ki values, Bryostatin 1, [3H]PDBu at 4 °C; cited from earlier work.
In a further series the target is PKCζ. As to conditions: [3H]PDBu at 4 °C; cited from earlier work.
Another series deals with PKCη. As to conditions: read-out: Previously reported biochemical Ki values, Bryostatin 1, [3H]PDBu at 4 °C; cited from earlier work.
For the next series, the target named is PKCθ. As to conditions: read-out: Previously reported biochemical Ki values, Bryostatin 1, [3H]PDBu at 4 °C; cited from earlier work.
A further series has as its target native PKCα (Mus musculus, UniProt P20444). Nature of the series: cell-based.
Another series addresses PKCα. As to conditions: read-out: Previously reported biochemical Ki values, Bryostatin 1, [3H]PDBu at 4 °C; cited from earlier work.
The target in another series is PKCβI. Particulars: read-out: Previously reported biochemical Ki values, Bryostatin 1, [3H]PDBu at 4 °C; cited from earlier work.
For a further series, the target named is PKCε. Particulars: read-out: Previously reported biochemical Ki values, Bryostatin 1, [3H]PDBu at 4 °C; cited from earlier work.
Where [1] appears, read: read-out: Cellular Ki values for native PKCs.

SMILES strings stand for the structures. Read-outs that look alike come from different tables or passages of the source.

Chain of native PKCδ (P28867 whole entry): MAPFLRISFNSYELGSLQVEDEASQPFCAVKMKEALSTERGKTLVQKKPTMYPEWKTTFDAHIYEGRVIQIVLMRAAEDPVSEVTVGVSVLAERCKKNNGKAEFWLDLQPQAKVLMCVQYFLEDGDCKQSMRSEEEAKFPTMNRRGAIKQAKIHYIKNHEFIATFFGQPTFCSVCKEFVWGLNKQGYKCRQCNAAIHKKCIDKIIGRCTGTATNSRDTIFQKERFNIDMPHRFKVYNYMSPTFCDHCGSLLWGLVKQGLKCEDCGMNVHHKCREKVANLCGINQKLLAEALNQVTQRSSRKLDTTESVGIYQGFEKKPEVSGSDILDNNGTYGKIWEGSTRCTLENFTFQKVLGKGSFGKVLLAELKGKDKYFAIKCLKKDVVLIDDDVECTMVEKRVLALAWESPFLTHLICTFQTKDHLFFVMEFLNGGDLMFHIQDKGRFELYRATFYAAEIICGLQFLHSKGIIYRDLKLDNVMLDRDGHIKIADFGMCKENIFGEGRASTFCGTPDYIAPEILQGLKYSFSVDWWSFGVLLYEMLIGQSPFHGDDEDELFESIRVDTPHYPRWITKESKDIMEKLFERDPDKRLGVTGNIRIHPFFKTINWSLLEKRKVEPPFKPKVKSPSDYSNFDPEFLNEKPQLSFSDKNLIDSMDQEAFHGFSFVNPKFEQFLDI
Chain of native PKCβI (P68404 whole entry): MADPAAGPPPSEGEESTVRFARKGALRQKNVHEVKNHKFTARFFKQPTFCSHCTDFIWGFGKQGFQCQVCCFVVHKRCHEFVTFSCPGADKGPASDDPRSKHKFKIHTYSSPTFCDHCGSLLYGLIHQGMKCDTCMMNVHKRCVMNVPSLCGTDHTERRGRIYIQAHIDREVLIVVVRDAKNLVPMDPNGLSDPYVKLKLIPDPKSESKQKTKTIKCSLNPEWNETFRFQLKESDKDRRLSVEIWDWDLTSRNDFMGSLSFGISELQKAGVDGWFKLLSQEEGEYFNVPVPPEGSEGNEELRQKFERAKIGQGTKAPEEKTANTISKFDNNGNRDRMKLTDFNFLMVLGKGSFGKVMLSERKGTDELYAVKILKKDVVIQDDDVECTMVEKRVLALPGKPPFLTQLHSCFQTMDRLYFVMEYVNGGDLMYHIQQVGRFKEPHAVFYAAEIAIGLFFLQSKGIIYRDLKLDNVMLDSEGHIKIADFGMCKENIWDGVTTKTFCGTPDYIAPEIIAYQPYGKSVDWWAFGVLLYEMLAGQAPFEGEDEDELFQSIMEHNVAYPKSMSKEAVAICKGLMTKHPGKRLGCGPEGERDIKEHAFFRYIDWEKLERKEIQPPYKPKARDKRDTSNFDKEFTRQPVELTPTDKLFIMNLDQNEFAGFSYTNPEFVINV
Chain of native PKCη (P23298 whole entry): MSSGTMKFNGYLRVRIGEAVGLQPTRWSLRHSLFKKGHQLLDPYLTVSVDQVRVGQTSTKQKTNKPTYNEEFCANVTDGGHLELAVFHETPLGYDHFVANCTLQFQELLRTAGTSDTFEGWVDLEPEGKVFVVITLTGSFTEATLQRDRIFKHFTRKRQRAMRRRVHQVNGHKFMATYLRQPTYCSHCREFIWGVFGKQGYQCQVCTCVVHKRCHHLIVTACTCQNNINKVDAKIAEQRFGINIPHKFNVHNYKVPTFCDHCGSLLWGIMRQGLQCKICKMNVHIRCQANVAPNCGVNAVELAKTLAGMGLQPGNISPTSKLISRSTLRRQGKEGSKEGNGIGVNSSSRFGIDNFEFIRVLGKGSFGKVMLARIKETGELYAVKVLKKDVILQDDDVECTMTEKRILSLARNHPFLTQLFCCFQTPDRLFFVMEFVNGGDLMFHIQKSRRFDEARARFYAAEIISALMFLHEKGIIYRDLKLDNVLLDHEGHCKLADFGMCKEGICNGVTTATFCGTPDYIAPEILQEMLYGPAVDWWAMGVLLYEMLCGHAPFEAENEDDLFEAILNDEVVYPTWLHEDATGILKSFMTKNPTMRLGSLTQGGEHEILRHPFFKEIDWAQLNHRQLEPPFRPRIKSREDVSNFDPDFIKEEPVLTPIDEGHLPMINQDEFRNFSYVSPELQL
Chain of native PKCθ (Q02111 whole entry): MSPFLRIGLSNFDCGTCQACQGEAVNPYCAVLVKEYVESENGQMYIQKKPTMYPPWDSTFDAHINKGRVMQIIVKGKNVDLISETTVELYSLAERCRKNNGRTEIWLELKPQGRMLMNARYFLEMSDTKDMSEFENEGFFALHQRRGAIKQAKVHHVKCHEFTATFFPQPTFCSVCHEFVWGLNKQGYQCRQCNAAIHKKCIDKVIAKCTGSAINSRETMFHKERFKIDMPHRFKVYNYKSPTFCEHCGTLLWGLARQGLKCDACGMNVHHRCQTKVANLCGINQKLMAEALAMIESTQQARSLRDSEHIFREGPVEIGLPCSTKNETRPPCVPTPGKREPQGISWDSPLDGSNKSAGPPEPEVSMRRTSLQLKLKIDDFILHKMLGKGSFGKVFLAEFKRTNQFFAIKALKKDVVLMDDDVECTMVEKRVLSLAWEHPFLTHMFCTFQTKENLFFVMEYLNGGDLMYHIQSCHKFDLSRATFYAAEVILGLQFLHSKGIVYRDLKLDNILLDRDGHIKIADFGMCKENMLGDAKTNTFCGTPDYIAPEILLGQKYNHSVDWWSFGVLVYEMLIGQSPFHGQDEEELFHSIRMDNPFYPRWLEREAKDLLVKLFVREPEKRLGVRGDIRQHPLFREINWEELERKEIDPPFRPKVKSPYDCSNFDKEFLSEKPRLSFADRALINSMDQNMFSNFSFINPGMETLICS

As to `CN(C)CCCn1cc(C2=C(c3c[nH]c4ccccc34)C(=O)NC2=O)c2ccccc21` [BIM1, bisindolylmaleimide I], the “effect of BIM1 on cytotoxicity of probes 1–3 towards Jurkat lymphocytes” value in the series on Jurkat E6-1 cells is “reduced or eliminated”. In the series on Jurkat E6-1 cells (BIM1 2 μM), the “effect of BIM1 on toxicity of PDBu towards Jurkat lymphocytes” value was “completely blocked”.
Usually Ki stands for a dissociation constant, usually derived from enzyme kinetics or from competition with a known ligand. The IC50 is the concentration needed to halve the response being measured. As to `CCCC(=O)O[C@@H]1[C@@H](C)[C@@]2(O)[C@@H](C=C(CO)C[C@]3(O)C(=O)C(C)=C[C@@H]23)[C@@H]2C(C)(C)[C@]12OC(=O)CCC` [PDBu, phorbol 12, 13-dibutyrate], the “fluctuation in measured cellular IC50 and Ki values” at native PKCβI is reported as “less than 3 fold”. In addition, the Ki at native PKCβI (setting [1]) is 15 nM; on native PKCγ (setting [1]) it was 18 nM; at native PKCδ (setting [1]), 45 nM; on native PKCε (setting [1]) it was 43 nM; at native PKCη (setting [1]), 27 nM; on native PKCθ (setting [1]), 49 nM. Moreover, the inhibition constant Ki at PKCδ is […]. At native PKCδ, the “lower affinity for PKCδ in cells than in biochemical assays” value is 10 fold. The “Cellular Ki values for native PKCs” value at native PKCζ is on record as “No binding”. Further, the “cytotoxicity towards HEK293T cells” value in the series with HEK293T cells is recorded as “non-toxic”. In addition, the IC50 in the series on Jurkat E6-1 cells (read-out: cytotoxic potency towards Jurkat lymphocytes, IC50) was 2 nM.
For the compound `CCC/C=C/C=C/C(=O)O[C@H]1/C(=C/C(=O)OC)C[C@H]2C[C@H]([C@@H](C)O)OC(=O)C[C@H](O)C[C@@H]3C[C@H](OC(C)=O)C(C)(C)[C@](O)(C[C@@H]4C/C(=C/C(=O)OC)C[C@H](/C=C/C(C)(C)[C@]1(O)O2)O4)O3` [bryostatin 1], the Ki at native PKCβI was determined as 2 nM; on native PKCγ it was 2 nM; at native PKCδ, 17 nM; at native PKCε, 11 nM; on native PKCη it was 5 nM; at native PKCθ, […]. In addition, the Ki at PKCγ was […]; on PKCη, […]; on PKCθ, […]; at native PKCα, 4 nM; at PKCα, […]; on PKCβI, […]. Moreover, the Ki at PKCε is […]. At native PKCδ (cellular Ki versus previously reported biochemical Ki), the “lower affinity for PKCδ in cells than in biochemical assays” value turned out to be […]. Also, the “Cellular Ki values for native PKCs” value at native PKCζ (PKCζ, competition with probe 1, BIM1 2 μM, 2 h 37 °C) was “No binding”. The “Previously reported biochemical Ki values, Bryostatin 1” value at PKCζ is given as “No binding”.
